Results from paper PMC7689916, “A Fluorescence Resonance Energy Transfer-Based Analytical Tool for Nitrate Quantification in Living Cells” (ACS Omega, 2020).
Numbering of substitutions follows the chain as printed. pKd: −log10 of the molar value.

Tests used:
Test in all cases: FRET ratio (YFP/CFP, […] nm) titration of purified sensor
Format in all cases: binding
[1] = molecular target: T1, NrtA (FLIP-NT; CFP_NrtA_YFP) (Synechocystis sp. PCC 6803, UniProt P73452)
T1 construct: FRET sensor: His6-CFP-NrtA-YFP; NrtA without signal peptide (first 36 residues), stop and penultimate codon removed (1227 bp, 409 residues); E. coli BL21-CodonPlus(DE3), Ni-NTA
T1 sequence (P73452 37-445): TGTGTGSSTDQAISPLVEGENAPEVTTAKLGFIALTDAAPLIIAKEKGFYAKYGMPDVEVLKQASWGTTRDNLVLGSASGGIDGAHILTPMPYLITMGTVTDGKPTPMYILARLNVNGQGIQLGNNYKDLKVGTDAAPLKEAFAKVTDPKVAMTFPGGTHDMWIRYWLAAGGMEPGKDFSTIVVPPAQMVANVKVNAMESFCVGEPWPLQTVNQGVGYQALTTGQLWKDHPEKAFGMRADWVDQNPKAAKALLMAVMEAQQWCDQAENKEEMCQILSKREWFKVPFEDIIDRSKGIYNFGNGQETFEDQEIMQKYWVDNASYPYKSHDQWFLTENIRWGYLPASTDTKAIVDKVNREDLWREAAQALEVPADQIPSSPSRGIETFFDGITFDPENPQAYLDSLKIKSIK

[2] = molecular target: T2, NrtA (FLIP-NT; CFP_NrtA_YFP) (Synechocystis sp. PCC 6803, UniProt P73452, G240Q)
T2 construct: FRET sensor: His6-CFP-NrtA-YFP; NrtA without signal peptide (first 36 residues), stop and penultimate codon removed (1227 bp, 409 residues); E. coli BL21-CodonPlus(DE3), Ni-NTA
T2 sequence (P73452 37-445 G240Q): T1 sequence (P73452 37-445) with G204Q

[3] = molecular target: T3, NrtA (FLIP-NT; CFP_NrtA_YFP) (Synechocystis sp. PCC 6803, UniProt P73452, W102A)
T3 construct: FRET sensor: His6-CFP-NrtA-YFP; NrtA without signal peptide (first 36 residues), stop and penultimate codon removed (1227 bp, 409 residues); E. coli BL21-CodonPlus(DE3), Ni-NTA
T3 sequence (P73452 37-445 W102A): T1 sequence (P73452 37-445) with W66A

[4] = molecular target: T4, NrtA (FLIP-NT; CFP_NrtA_YFP) (Synechocystis sp. PCC 6803, UniProt P73452, Q155I)
T4 construct: FRET sensor: His6-CFP-NrtA-YFP; NrtA without signal peptide (first 36 residues), stop and penultimate codon removed (1227 bp, 409 residues); E. coli BL21-CodonPlus(DE3), Ni-NTA
T4 sequence (P73452 37-445 Q155I): T1 sequence (P73452 37-445) with Q119I

## O=[N+]([O-])O [nitrate]
[1]
  pKd: 5.30
[2]
  pKd: 4.49
[3]
  pKd: 4.25
[4]
  pKd: 6.00
